Laboratory results: patent publication US20230077362A1 (CORTEVA AGRISCIENCE LLC, priority 2019, published 2023)

Legend:
[1] = test system: Beet Armyworm (Spodoptera exigua) ("BAW"), second instar larvae; experiment: Bioassay on beet armyworm (BAW), 128-well diet tray assay; assay type: in vivo; details: for pest or weed control at 50 µg/cm2: Spodoptera exigua, read-out: BAW rating; for BAW rating: Table ABC, species BAW, C = not tested, D = no activity noticed
How it was run: (§1)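 Mortality (%) is scored well by well after five to seven days at 25° C. on a 14:10 light:dark regime. The value given is the mean of eight wells.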

[2] = test system: Cabbage Looper (Trichoplusia ni) ("CL"), second instar larvae; experiment: Bioassay on cabbage looper (CL), 128-well diet tray assay; assay type: in vivo; details: for pest or weed control at 50 µg/cm2: Trichoplusia ni, read-out: CL rating; for CL rating: Table ABC, species CL, C = not tested, D = no activity noticed
How it was run: as §1

Row | Compound | pest or weed control at 50 µg/cm2 [1] [%] | pest or weed control at 50 µg/cm2 [2] [%] | BAW rating [1] | CL rating [2]
1 | Cc1ccc(COCC(F)(F)F)c(N2C(=O)CS/C2=N\C(=O)Nc2ccc(-c3cn(-c4ccc(C(F)(F)F)cc4)cn3)cc2C)c1 [Compound J526, (Z)-1-(3-(5-Methyl-2-((2,2,2-trifluoroethoxy)methyl)phenyl)-4-oxothiazolidin-2-ylidene)-3-(2-methyl-4-(1-(4-(trifluoromethyl)phenyl)-1H-imidazol-4-yl)phenyl)urea] | 50 to 100 | 50 to 100 |  | 
2 | Cc1ccc(OCCC(F)(F)F)c(N2C(=O)CS/C2=N\C(=O)Nc2ccc(-c3cn(-c4ccc(C(F)(F)F)cc4)cn3)cc2C)c1 [Compound J527, (Z)-1-(3-(5-Methyl-2-(3,3,3-trifluoropropoxy)phenyl)-4-oxothiazolidin-2-ylidene)-3-(2-methyl-4-(1-(4-(trifluoromethyl)phenyl)-1H-imidazol-4-yl)phenyl)urea] | 50 to 100 | 50 to 100 |  | 
3 | CC(C)c1ccc(N(C)C)cc1N1C(=O)CS/C1=N\C(=O)Nc1ccc(-c2cn(-c3ccc(OC(F)(F)F)cc3)cn2)cc1 [Compound J529, (Z)-1-(3-(5-(Dimethylamino)-2-isopropylphenyl)-4-oxothiazolidin-2-ylidene)-3-(4-(1-(4-(trifluoromethoxy)phenyl)-1H-imidazol-4-yl)phenyl)urea] | 50 to 100 | 50 to 100 |  | 
4 | Cc1ccc(COCC(C)(F)F)c(N2C(=O)CS/C2=N\C(=O)Nc2ccc(-c3ncn(-c4ccc(OC(F)(F)F)cc4)n3)cc2C)c1 [Compound J534] |  |  | A (50-100) | A (50-100)
5 | Cc1ccc(COCC(C)(F)F)c(N2C(=O)CS/C2=N\C(=O)Nc2ccc(-c3ncn(-c4ccc(OC(F)(F)F)cc4)n3)cc2F)c1 [Compound J535] |  |  | A (50-100) | A (50-100)
6 | CCCOc1ccc(C)cc1N1C(=O)CS/C1=N\C(=O)Nc1ccc(-c2ncn(-c3ccc(S(F)(F)(F)(F)F)cc3)n2)cc1F [Compound J541] | 50 to 100 | 50 to 100 |  | 
7 | Cc1ccc(COCCC(F)(F)F)c(N2C(=O)CS/C2=N\C(=O)Nc2ccc(-c3ncn(-c4ccc(OC(F)(F)F)cc4)n3)cc2F)c1 [Compound J543] |  |  | A (50-100) | A (50-100)
8 | CCCOCc1ccc(C)cc1N1C(=O)CS/C1=N\C(=O)Nc1ccc(-c2ncn(-c3ccc(S(F)(F)(F)(F)F)cc3)n2)cc1F [Compound J544] |  |  | A (50-100) | A (50-100)
9 | CCCOCc1ccc(C)cc1N1C(=O)CS/C1=N\C(=O)Nc1ccc(-c2ncn(-c3ccc(OC(F)(F)F)cc3)n2)cc1C [Compound J546] |  |  | A (50-100) | A (50-100)
10 | Cc1ccc(COCCC(F)(F)F)c(N2C(=O)CS/C2=N\C(=O)Nc2ccc(-c3ncn(-c4ccc(C(F)(F)F)cc4)n3)cc2F)c1 [Compound J547] |  |  | A (50-100) | A (50-100)
11 | CCOCc1ccc(C)cc1N1C(=O)CS/C1=N\C(=O)Nc1ccc(-c2ncn(-c3ccc(S(F)(F)(F)(F)F)cc3)n2)cc1C [Compound J548] |  |  | A (50-100) | A (50-100)
12 | Cc1ccc(COCC(F)(F)F)c(N2C(=O)CS/C2=N\C(=O)Nc2ccc(-c3ncn(-c4ccc(S(F)(F)(F)(F)F)cc4)n3)cc2C)c1 [Compound J549] |  |  | A (50-100) | A (50-100)
13 | Cc1ccc(COCC(Cl)(Cl)Cl)c(N2C(=O)CS/C2=N\C(=O)Nc2ccc(-c3ncn(-c4ccc(C(F)(F)F)cc4)n3)cc2F)c1 [Compound J550] |  |  | A (50-100) | A (50-100)
14 | Cc1ccc(COCCF)c(N2C(=O)CS/C2=N\C(=O)Nc2ccc(-c3ncn(-c4ccc(OC(F)(F)F)cc4)n3)cc2F)c1 [Compound J551] |  |  | A (50-100) | A (50-100)
15 | Cc1ccc(COCCF)c(N2C(=O)CS/C2=N\C(=O)Nc2ccc(-c3ncn(-c4ccc(S(F)(F)(F)(F)F)cc4)n3)cc2F)c1 [Compound J552] | 50 to 100 | 50 to 100 |  | 
16 | Cc1ccc(COCC(Cl)Cl)c(N2C(=O)CS/C2=N\C(=O)Nc2ccc(-c3ncn(-c4ccc(OC(F)(F)F)cc4)n3)cc2F)c1 [Compound J553] |  |  | A (50-100) | A (50-100)
17 | Cc1ccc(COCC(Cl)Cl)c(N2C(=O)CS/C2=N\C(=O)Nc2ccc(-c3ncn(-c4ccc(S(F)(F)(F)(F)F)cc4)n3)cc2F)c1 [Compound J554] |  |  | A (50-100) | A (50-100)
18 | Cc1ccc(COCC(Cl)Cl)c(N2C(=O)CS/C2=N\C(=O)Nc2ccc(-c3ncn(-c4ccc(OC(F)(F)F)cc4)n3)cc2C)c1 [Compound J555] | 50 to 100 | 50 to 100 |  | 

Row | Compound | pest or weed control at 50 µg/cm2 [1] [%] | pest or weed control at 50 µg/cm2 [2] [%] | BAW rating [1] | CL rating [2]
19 | Cc1ccc(COCC(Cl)Cl)c(N2C(=O)CS/C2=N\C(=O)Nc2ccc(-c3ncn(-c4ccc(S(F)(F)(F)(F)F)cc4)n3)cc2C)c1 [Compound J556] |  |  | A (50-100) | A (50-100)
20 | Cc1ccc(COCCF)c(N2C(=O)CS/C2=N\C(=O)Nc2ccc(-c3ncn(-c4ccc(S(F)(F)(F)(F)F)cc4)n3)cc2C)c1 [Compound J557] |  |  | A (50-100) | A (50-100)
21 | Cc1ccc(COCCF)c(N2C(=O)CS/C2=N\C(=O)Nc2ccc(-c3ncn(-c4ccc(OC(F)(F)F)cc4)n3)cc2C)c1 [Compound J558] |  |  | A (50-100) | A (50-100)
22 | Cc1ccc(COCC(Cl)Cl)c(N2C(=O)CS/C2=N\C(=O)Nc2ccc(-c3ncn(-c4ccc(C(F)(F)F)cc4)n3)cc2F)c1 [Compound J559] |  |  | A (50-100) | A (50-100)
23 | COc1cc(COCC(F)(F)F)c(N2C(=O)CS/C2=N\C(=O)Nc2ccc(-c3ncn(-c4ccc(OC(F)(F)F)cc4)n3)cc2F)cc1OC [Compound J560] |  |  | A (50-100) | A (50-100)
24 | COc1cc(COCC(F)(F)F)c(N2C(=O)CS/C2=N\C(=O)Nc2ccc(-c3ncn(-c4ccc(S(F)(F)(F)(F)F)cc4)n3)cc2F)cc1OC [Compound J561] |  |  | A (50-100) | A (50-100)
25 | Cc1ccc(Cc2ccccc2)c(N2C(=O)CS/C2=N\C(=O)Nc2ccc(-c3ncn(-c4ccc(C(F)(F)F)cc4)n3)cc2F)c1 [Compound J562, (Z)-1-(3-(2-Benzyl-5-methylphenyl)-4-oxothiazolidin-2-ylidene)-3-(2-fluoro-4-(1-(4-(trifluoromethyl)phenyl)-1H-1,2,4-triazol-3-yl)phenyl)urea] | 50 to 100 | 50 to 100 |  | 
26 | Cc1ccc(Cc2ccccc2)c(N2C(=O)CS/C2=N\C(=O)Nc2ccc(-c3ncn(-c4ccc(S(F)(F)(F)(F)F)cc4)n3)cc2F)c1 [Compound J563, (Z)-1-(3-(2-Benzyl-5-methylphenyl)-4-oxothiazolidin-2-ylidene)-3-(2-fluoro-4-(1-(4-(pentafluoro-λ^6-sulfaneyl)phenyl)-1H-1,2,4-triazol-3-yl)phenyl)urea] | 50 to 100 | 50 to 100 |  | 
27 | COc1ccc(COCC(F)(F)F)c(N2C(=O)CS/C2=N\C(=O)Nc2ccc(-c3ncn(-c4ccc(OC(F)(F)F)cc4)n3)cc2F)c1 [Compound J564] |  |  | A (50-100) | A (50-100)
28 | COc1ccc(COCC(F)(F)F)c(N2C(=O)CS/C2=N\C(=O)Nc2ccc(-c3ncn(-c4ccc(S(F)(F)(F)(F)F)cc4)n3)cc2F)c1 [Compound J565] |  |  | A (50-100) | A (50-100)
29 | Cc1cccc(N2C(=O)CS/C2=N\C(=O)Nc2ccc(-c3ncn(-c4ccc(OC(F)(F)F)cc4)n3)cc2F)c1COCC(F)(F)F [Compound J566] |  |  | A (50-100) | A (50-100)
30 | Cc1cccc(N2C(=O)CS/C2=N\C(=O)Nc2ccc(-c3ncn(-c4ccc(S(F)(F)(F)(F)F)cc4)n3)cc2F)c1COCC(F)(F)F [Compound J567] |  |  | A (50-100) | A (50-100)
31 | Cc1ccc(COCc2cccc(F)c2)c(N2C(=O)CS/C2=N\C(=O)Nc2ccc(-c3ncn(-c4ccc(OC(F)(F)F)cc4)n3)cc2F)c1 [Compound J568, (Z)-1-(2-fluoro-4-(1-(4-(trifluoromethoxy)phenyl)-1H-1,2,4-triazol-3-yl)phenyl)-3-(3-(2-(((3-fluorobenzyl)oxy)methyl)-5-methylphenyl)-4-oxothiazolidin-2-ylidene)urea] | 50 to 100 | 50 to 100 |  | 
32 | Cc1ccc(COCC(F)(F)F)c(N2C(=O)CS/C2=N\C(=O)Nc2ccc(-c3ncn(-c4ccc(S(F)(F)(F)(F)F)cc4)n3)cc2C#N)c1 [Compound J569, (Z)-1-(2-Cyano-4-(1-(4-(pentafluoro-λ^6-sulfaneyl)phenyl)-1H-1,2,4-triazol-3-yl)phenyl)-3-(3-(5-methyl-2-((2,2,2-trifluoroethoxy)methyl)phenyl)-4-oxothiazolidin-2-ylidene)urea] | 50 to 100 | 50 to 100 |  | 
33 | Cc1ccc(COCc2ccccc2)c(N2C(=O)CS/C2=N\C(=O)Nc2ccc(-c3ncn(-c4ccc(OC(F)(F)F)cc4)n3)cc2F)c1 [Compound J571, (Z)-1-(3-(2-((Benzyloxy)methyl)-5-methylphenyl)-4-oxothiazolidin-2-ylidene)-3-(2-fluoro-4-(1-(4-(trifluoromethoxy)phenyl)-1H-1,2,4-triazol-3-yl)phenyl)urea] | 50 to 100 | 50 to 100 |  | 
34 | Cc1cc(-c2ncn(-c3ccc(OC(F)(F)F)cc3)n2)ccc1NC(=O)/N=C1\SCC(=O)N1c1cccc(C)c1COCC(F)(F)F [Compound J576] |  |  | A (50-100) | A (50-100)
35 | COc1ccc(COCC(F)(F)F)c(N2C(=O)CS/C2=N\C(=O)Nc2ccc(-c3ncn(-c4ccc(S(F)(F)(F)(F)F)cc4)n3)cc2C)c1 [Compound J577] |  |  | A (50-100) | A (50-100)
